The assay deals with CD2F1 mice, L1210 leukemia ip, survival T/C. Briefly: NCI In Vivo Anticancer Drug Screen. Data for tumor model L1210 Leukemia (intraperitoneal) in CD2F1 (CDF1) mice. Conditions: endpoint: mean survival time, higher = longer survival. The essentials:
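Antitumor effect is scored in animals hosting a serially transplanted tumor. Values compare compound-dosed animals against vehicle-only controls as a simple quotient.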

The mark [1] stands for this setting: dose: 100.0 mg/kg/injection, schedule: Q04DX002 (ip), vehicle: saline with Tween-80.
Setting [2] is: dose: 200.0 mg/kg/injection, schedule: Q04DX002 (ip), vehicle: saline with Tween-80.
Setting [3] is: dose: 400.0 mg/kg/injection, schedule: Q04DX002 (ip), vehicle: saline with Tween-80.
Setting [4] is: dose: 100.0 mg/kg/injection, schedule: Q04DX003 (ip), vehicle: saline.
[5] abbreviates: dose: 200.0 mg/kg/injection, schedule: Q04DX003 (ip), vehicle: saline.
Setting [6] is: dose: 100.0 mg/kg/injection, schedule: Q04DX003 (ip), vehicle: saline with Tween-80.
The mark [7] stands for this setting: dose: 200.0 mg/kg/injection, schedule: Q04DX003 (ip), vehicle: saline with Tween-80.
[8] abbreviates: dose: 100.0 mg/kg/injection, schedule: Q01DX001 (ip), vehicle: saline.
Where [9] appears, read: dose: 200.0 mg/kg/injection, schedule: Q01DX001 (ip), vehicle: saline.
The mark [10] stands for this setting: dose: 100.0 mg/kg/injection, schedule: Q01DX001 (ip), vehicle: saline with Tween-80.
Setting [11] is: dose: 100.0 mg/kg/injection, schedule: Q01DX009 (ip), vehicle: saline with Tween-80.
Where [12] appears, read: dose: 200.0 mg/kg/injection, schedule: Q01DX001 (ip), vehicle: saline with Tween-80.
The mark [13] stands for this setting: dose: 200.0 mg/kg/injection, schedule: Q01DX009 (ip), vehicle: saline with Tween-80.
Setting [14] is: dose: 400.0 mg/kg/injection, schedule: Q04DX003 (ip), vehicle: saline with Tween-80.
[15] abbreviates: dose: 400.0 mg/kg/injection, schedule: Q01DX001 (ip), vehicle: saline with Tween-80.
The mark [16] stands for this setting: dose: 100.0 mg/kg/injection, schedule: Q04DX003 (ip), vehicle: other.
The mark [17] stands for this setting: dose: 200.0 mg/kg/injection, schedule: Q04DX003 (ip), vehicle: other.
[18] abbreviates: dose: 400.0 mg/kg/injection, schedule: Q04DX003 (ip), vehicle: other.

Structures are written as SMILES. “And” between values parts separate entries of the source, which are not always exact repeats. Identical values can stand only once. Inconclusive results and toxic doses are left out.

The values below come from PubChem BioAssay AID256 (DTP/NCI, 2004).

`OC1C(I)CC(Cl)C2CCC[N-]C12.OC1C(I)CC(Cl)C2CCC[N-]C12.[Cu+2]` (configuration not stated): the T/C under setting [1] was 96 % of control, the T/C under setting [2] was 92 % of control and the T/C under setting [3] was 88 % of control.

Turning to `CCN1CCC(CC)(CN2c3ccccc3Sc3ccc(Cl)cc32)C1` (configuration not stated), the T/C under setting [4] is 100 % of control and the T/C under setting [5] is 96 % of control.

On to `CC([NH-])C([NH-])O.[Br][Pt+2][Br]` (configuration not stated), for which, for the setting “dose: 25.0 mg/kg/injection, schedule: Q04DX003 (ip), vehicle: saline with Tween-80”, the T/C was 169 % of control.

For `COc1ccc(C(=O)C/C(=N\N(C(=O)c2ccc(OC)cc2)c2ccccc2)c2ccc(OC)cc2)cc1`, the T/C by setting is: under setting [6], 95 % of control; under setting [7], 97 % of control.

Turning to `S=C1SCCCS1`, the T/C was 103 % of control (dose: 75.0 mg/kg/injection, schedule: Q04DX003 (ip), vehicle: Klucel (hydroxypropylcellulose) (HPC)); 98 % of control (dose: 150.0 mg/kg/injection, schedule: Q04DX003 (ip), vehicle: Klucel (hydroxypropylcellulose) (HPC)); 98 % of control (dose: 300.0 mg/kg/injection, schedule: Q04DX003 (ip), vehicle: Klucel (hydroxypropylcellulose) (HPC)).

Turning to `CC(C)N(CC(=O)O)CC(=O)O`, the T/C under setting [8] was 100 % of control and the T/C under setting [9] is 100 % of control.

`O=C(O)/C(=C\c1cccc([N+](=O)[O-])c1)c1ccccc1`: the T/C is 97 % of control under setting [10]; 91 % of control and 107 % of control under setting [11]; 100 % of control and 105 % of control under setting [1]; 100 % of control under setting [6]; 96 % of control under setting [12]; 93 % of control under setting [13]. Further, the T/C is 101 % of control and 103 % of control under setting [2]; 100 % of control under setting [7]; 90 % of control and 92 % of control under setting [3]; 100 % of control under setting [14].

For `CN(CCCOS(C)(=O)=O)CCCN(C)CCCOS(C)(=O)=O`, the T/C is, setting by setting: (dose: 10.0 mg/kg/injection, schedule: Q01DX001 (ip), vehicle: saline) 115 % of control; (dose: 20.0 mg/kg/injection, schedule: Q01DX001 (ip), vehicle: saline) 107 % of control; (dose: 40.0 mg/kg/injection, schedule: Q01DX001 (ip), vehicle: saline) 115 % of control; (dose: 60.0 mg/kg/injection, schedule: Q01DX001 (ip), vehicle: saline) 124 % of control; (dose: 80.0 mg/kg/injection, schedule: Q01DX001 (ip), vehicle: saline) 115 % of control; under setting [8], 117 % of control.

As for `CCCCCCCCCCCCCCCCCCC(C)C1CCCCC1` (configuration not stated), the T/C was 104 % of control under setting [10], 107 % of control under setting [12] and 101 % of control under setting [15].

For the molecule `COCc1nnc2nc[nH]c(=O)c2n1`, the T/C runs as follows: (dose: 100.0 mg/kg/injection, schedule: Q01DX001 (ip), vehicle: carboxymethylcellulose (CMC)) 98 % of control; (dose: 200.0 mg/kg/injection, schedule: Q01DX001 (ip), vehicle: carboxymethylcellulose (CMC)) 101 % of control.

`S=c1[nH]c2ccccc2nc1NCc1ccccc1`: the T/C reads like this: under setting [16], 91 % of control; under setting [17], 93 % of control; under setting [18], 93 % of control.

As to `CCOC(=O)N1Cc2cc3ccccc3nc2C1`, the T/C is 100 % of control (dose: 75.0 mg/kg/injection, schedule: Q01DX009 (ip), vehicle: saline with Tween-80) and 101 % of control (dose: 150.0 mg/kg/injection, schedule: Q01DX009 (ip), vehicle: saline with Tween-80).

For `C1CNC2NCCNC2N1` (configuration not stated), the T/C under setting [11] was 101 % of control; the T/C (dose: 100.0 mg/kg/injection, schedule: Q04DX003 (ip), vehicle: saline sonified) is 109 % of control; the T/C under setting [13] was 102 % of control; the T/C (dose: 200.0 mg/kg/injection, schedule: Q04DX003 (ip), vehicle: saline sonified) is 103 % of control; the T/C (dose: 400.0 mg/kg/injection, schedule: Q01DX009 (ip), vehicle: saline with Tween-80) is 108 % of control; the T/C (dose: 400.0 mg/kg/injection, schedule: Q04DX003 (ip), vehicle: saline sonified) is 115 % of control.

Turning to `OCCC1CC1=C1CC1` (configuration not stated), the T/C runs as follows: (dose: 100.0 mg/kg/injection, schedule: Q04DX003 (ip), vehicle: Klucel (hydroxypropylcellulose) (HPC)) 101 % of control; (dose: 200.0 mg/kg/injection, schedule: Q04DX003 (ip), vehicle: Klucel (hydroxypropylcellulose) (HPC)) 101 % of control.

As for `COc1cc(Cl)ccc1NC(=O)Nc1cccc(Cl)c1`, the T/C was 88 % of control under setting [1], 95 % of control under setting [2] and 95 % of control under setting [3].

`CC(C)CC(N)C(=O)NCCCCCCCCCCNC(=O)C(N)CC(C)C` (configuration not stated): the T/C is, setting by setting: (dose: 6.25 mg/kg/injection, schedule: Q01DX010 (ip), vehicle: saline) 100 % of control; (dose: 12.5 mg/kg/injection, schedule: Q01DX010 (ip), vehicle: saline) 113 % of control; (dose: 25.0 mg/kg/injection, schedule: Q01DX010 (ip), vehicle: saline) 97 % of control; (dose: 50.0 mg/kg/injection, schedule: Q01DX010 (ip), vehicle: saline) 91 % of control.

For the molecule `CC1(C)N=C(N)N=C(N)N1c1ccc(CCC(=O)Nc2ccc(S(=O)(=O)F)cc2)cc1`, the T/C runs as follows: (dose: 12.5 mg/kg/injection, schedule: Q01DX009 (ip), vehicle: saline with Tween-80) 112 % of control; (dose: 25.0 mg/kg/injection, schedule: Q01DX009 (ip), vehicle: saline with Tween-80) 117 % of control; under setting [8], 102 % of control; under setting [11], 115 % of control; under setting [9], 111 % of control; (dose: 200.0 mg/kg/injection, schedule: Q01DX009 (ip), vehicle: saline) 123 % of control. Besides, the T/C is, setting by setting: (dose: 300.0 mg/kg/injection, schedule: Q01DX009 (ip), vehicle: saline) 171 % of control; (dose: 400.0 mg/kg/injection, schedule: Q01DX001 (ip), vehicle: saline) 120 % of control; (dose: 400.0 mg/kg/injection, schedule: Q01DX009 (ip), vehicle: saline) 123 % of control.

Regarding `CC(C)(C)N[P+](C)(NC(C)(C)C)c1ccccc1`, the T/C is, setting by setting: (dose: 3.13 mg/kg/injection, schedule: Q04DX003 (ip), vehicle: saline) 98 % of control; (dose: 6.25 mg/kg/injection, schedule: Q04DX003 (ip), vehicle: saline) 103 % of control; (dose: 12.5 mg/kg/injection, schedule: Q04DX003 (ip), vehicle: saline) 86 % of control and 95 % of control.

For the molecule `O=C(Nc1ccccc1[N+](=O)[O-])c1ccccc1`, the T/C by setting is: under setting [10], 97 % of control; under setting [6], 102 % of control; under setting [12], 100 % of control; under setting [7], 105 % of control; under setting [15], 95 % of control; under setting [14], 97 % of control.

Turning to `C=CCc1ccccc1OC`, the T/C runs as follows: under setting [4], 95 % of control; under setting [5], 104 % of control; (dose: 400.0 mg/kg/injection, schedule: Q04DX003 (ip), vehicle: saline) 95 % of control.

Turning to `Cc1cc(=O)n2cc(Br)ccc2n1`, the T/C is, setting by setting: (dose: 12.5 mg/kg/injection, schedule: Q01DX001 (ip), vehicle: saline) 108 % of control; (dose: 25.0 mg/kg/injection, schedule: Q01DX001 (ip), vehicle: saline) 107 % of control; (dose: 50.0 mg/kg/injection, schedule: Q01DX001 (ip), vehicle: saline) 96 % of control.

Regarding `Cc1cc(Cc2ccccc2)c(O)c(Cc2ccccc2)c1`, the T/C runs as follows: under setting [16], 96 % of control; under setting [17], 102 % of control; under setting [18], 94 % of control.

On to `c1ccc(CSC(SCc2ccccc2)c2ccccc2)cc1`, for which the T/C runs as follows: (dose: 100.0 mg/kg/injection, schedule: Q01DX009 (ip), vehicle: Klucel (hydroxypropylcellulose) (HPC)) 86 % of control; under setting [6], 96 % of control; (dose: 200.0 mg/kg/injection, schedule: Q01DX009 (ip), vehicle: Klucel (hydroxypropylcellulose) (HPC)) 92 % of control; under setting [7], 100 % of control; (dose: 400.0 mg/kg/injection, schedule: Q01DX009 (ip), vehicle: Klucel (hydroxypropylcellulose) (HPC)) 92 % of control; under setting [14], 97 % of control.
